# Experimental data as given in PubChem BioAssay (NCI).
#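 How tested: cells in 96-well plates exposed to compound for 48 hours at five concentrations. TGI: total growth inhibition.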
# Legend:
# Assay in all cases: DTP human tumour cell line panel, 48 h
# SW-620 colon = test system: SW-620 colon
# SN12C renal = test system: SN12C renal
# K-562 leukemia = test system: K-562 leukemia
# CAKI-1 renal = test system: CAKI-1 renal
# SK-MEL-2 melanoma = test system: SK-MEL-2 melanoma
# OVCAR-4 ovarian = test system: OVCAR-4 ovarian
# HOP-18 NSCLC = test system: HOP-18 NSCLC
# UACC-257 melanoma = test system: UACC-257 melanoma
# IGROV1 ovarian = test system: IGROV1 ovarian
# LXFL 529 NSCLC = test system: LXFL 529 NSCLC
# OVCAR-3 ovarian = test system: OVCAR-3 ovarian
# OVCAR-5 ovarian = test system: OVCAR-5 ovarian
# 786-0 renal = test system: 786-0 renal
# NCI-H522 lung = test system: NCI-H522 lung
# ACHN renal = test system: ACHN renal
# NCI-H460 lung = test system: NCI-H460 lung
# SR leukemia = test system: SR leukemia
# HCT-116 colon = test system: HCT-116 colon
# UO-31 renal = test system: UO-31 renal
# HOP-62 NSCLC = test system: HOP-62 NSCLC
# RXF 393 renal = test system: RXF 393 renal
# EKVX NSCLC = test system: EKVX NSCLC
# HT29 colon = test system: HT29 colon
# XF 498 CNS = test system: XF 498 CNS
# A549 NSCLC = test system: A549 NSCLC
# SF-268 CNS = test system: SF-268 CNS
# MALME-3M melanoma = test system: MALME-3M melanoma
# SNB-78 CNS = test system: SNB-78 CNS
# SK-MEL-28 melanoma = test system: SK-MEL-28 melanoma
# U251 CNS = test system: U251 CNS
# KM20L2 colon = test system: KM20L2 colon
# A498 renal = test system: A498 renal
# SNB-75 CNS = test system: SNB-75 CNS
# NCI-H23 lung = test system: NCI-H23 lung
# DMS 273 small cell lung = test system: DMS 273 small cell lung
# KM12 colon = test system: KM12 colon
# COLO 205 colon = test system: COLO 205 colon
# SK-MEL-5 melanoma = test system: SK-MEL-5 melanoma
# DMS 114 small cell lung = test system: DMS 114 small cell lung
# SF-295 CNS = test system: SF-295 CNS
# OVCAR-8 ovarian = test system: OVCAR-8 ovarian
# CCRF-CEM leukemia = test system: CCRF-CEM leukemia
# SNB-19 CNS = test system: SNB-19 CNS
# MOLT-4 leukemia = test system: MOLT-4 leukemia
# SF-539 CNS = test system: SF-539 CNS
# HOP-92 NSCLC = test system: HOP-92 NSCLC
# DLD-1 colon = test system: DLD-1 colon
# SK-OV-3 ovarian = test system: SK-OV-3 ovarian
# M14 melanoma = test system: M14 melanoma
# HL-60(TB) leukemia = test system: HL-60(TB) leukemia
# NCI-H226 lung = test system: NCI-H226 lung
# M19-MEL melanoma = test system: M19-MEL melanoma
# UACC-62 melanoma = test system: UACC-62 melanoma
# TK-10 renal = test system: TK-10 renal
# LOX IMVI melanoma = test system: LOX IMVI melanoma
# HCT-15 colon = test system: HCT-15 colon
# RPMI-8226 leukemia = test system: RPMI-8226 leukemia
# RXF-631 renal = test system: RXF-631 renal
# HCC-2998 colon = test system: HCC-2998 colon
structure (smiles),measurement,setting,value
CCCC(=O)C(CC)/C(CCC(=O)N(Cc1ccccc1)Cc1ccccc1)=N/NC(=O)C[N+](C)(C)C (stereo unspecified),TGI,SW-620 colon,> 100 µM
same,TGI,SN12C renal,> 100 µM
same,TGI,K-562 leukemia,> 100 µM
same,TGI,CAKI-1 renal,> 100 µM
same,TGI,SK-MEL-2 melanoma,> 100 µM
same,TGI,OVCAR-4 ovarian,> 100 µM
same,TGI,HOP-18 NSCLC,> 100 µM
same,TGI,UACC-257 melanoma,> 100 µM
same,TGI,IGROV1 ovarian,> 100 µM
same,TGI,LXFL 529 NSCLC,> 100 µM
same,TGI,OVCAR-3 ovarian,> 100 µM
same,TGI,OVCAR-5 ovarian,> 100 µM
same,TGI,786-0 renal,> 100 µM
same,TGI,NCI-H522 lung,> 100 µM
same,TGI,ACHN renal,> 100 µM
same,TGI,NCI-H460 lung,> 100 µM
same,TGI,SR leukemia,> 100 µM
same,TGI,HCT-116 colon,> 100 µM
same,TGI,UO-31 renal,> 100 µM
same,TGI,HOP-62 NSCLC,> 100 µM
same,TGI,RXF 393 renal,> 100 µM
same,TGI,EKVX NSCLC,> 100 µM
same,TGI,HT29 colon,> 100 µM
same,TGI,XF 498 CNS,> 100 µM
same,TGI,A549 NSCLC,> 100 µM
same,TGI,SF-268 CNS,> 100 µM
same,TGI,MALME-3M melanoma,> 100 µM
same,TGI,SNB-78 CNS,> 100 µM
same,TGI,SK-MEL-28 melanoma,> 100 µM
same,TGI,U251 CNS,> 100 µM
same,TGI,KM20L2 colon,> 100 µM
same,TGI,A498 renal,> 100 µM
same,TGI,SNB-75 CNS,> 100 µM
same,TGI,NCI-H23 lung,> 100 µM
same,TGI,DMS 273 small cell lung,> 100 µM
same,TGI,KM12 colon,> 100 µM
same,TGI,COLO 205 colon,> 100 µM
same,TGI,SK-MEL-5 melanoma,> 100 µM
same,TGI,DMS 114 small cell lung,> 100 µM
same,TGI,SF-295 CNS,> 100 µM
same,TGI,OVCAR-8 ovarian,> 100 µM
same,TGI,CCRF-CEM leukemia,> 100 µM
same,TGI,SNB-19 CNS,> 100 µM
same,TGI,MOLT-4 leukemia,> 100 µM
same,TGI,SF-539 CNS,> 100 µM
same,TGI,HOP-92 NSCLC,> 100 µM
same,TGI,DLD-1 colon,> 100 µM
same,TGI,SK-OV-3 ovarian,> 100 µM
same,TGI,M14 melanoma,> 100 µM
same,TGI,HL-60(TB) leukemia,> 100 µM
same,TGI,NCI-H226 lung,> 100 µM
same,TGI,M19-MEL melanoma,> 100 µM
COC(=O)/C=C\C1C(C(=O)OC)C2(C(=O)OC)CCC1(C(=O)OC)N2 (stereo unspecified),TGI,SW-620 colon,9.38 µM
same,TGI,SN12C renal,29.9 µM
same,TGI,K-562 leukemia,53.2 µM
same,TGI,CAKI-1 renal,6.82 µM
same,TGI,SK-MEL-2 melanoma,30 µM
same,TGI,OVCAR-4 ovarian,34.5 µM
same,TGI,HOP-18 NSCLC,28.9 µM
same,TGI,UACC-257 melanoma,19.2 µM
same,TGI,IGROV1 ovarian,> 58.1 µM
same,TGI,LXFL 529 NSCLC,19.3 µM
same,TGI,UACC-62 melanoma,29.8 µM
same,TGI,OVCAR-3 ovarian,28.7 µM
same,TGI,OVCAR-5 ovarian,34.5 µM
same,TGI,TK-10 renal,15 µM
same,TGI,786-0 renal,28.6 µM
same,TGI,NCI-H522 lung,1.76 µM
same,TGI,ACHN renal,22.7 µM
same,TGI,NCI-H460 lung,42.5 µM
same,TGI,SR leukemia,16.7 µM
same,TGI,HCT-116 colon,27.6 µM
same,TGI,UO-31 renal,30.8 µM
same,TGI,HOP-62 NSCLC,34.1 µM
same,TGI,RXF 393 renal,19.7 µM
same,TGI,EKVX NSCLC,> 60.2 µM
same,TGI,HT29 colon,45.7 µM
same,TGI,XF 498 CNS,34.3 µM
same,TGI,A549 NSCLC,39.9 µM
same,TGI,SF-268 CNS,44.5 µM
same,TGI,MALME-3M melanoma,15.8 µM
same,TGI,SNB-78 CNS,35.9 µM
same,TGI,SK-MEL-28 melanoma,26.4 µM
same,TGI,U251 CNS,32.7 µM
same,TGI,KM20L2 colon,> 61.8 µM
same,TGI,A498 renal,32.9 µM
same,TGI,SNB-75 CNS,32.9 µM
same,TGI,NCI-H23 lung,36.4 µM
same,TGI,DMS 273 small cell lung,33.9 µM
same,TGI,LOX IMVI melanoma,29 µM
same,TGI,KM12 colon,36.7 µM
same,TGI,COLO 205 colon,13.5 µM
same,TGI,SK-MEL-5 melanoma,34.1 µM
same,TGI,SF-295 CNS,44.8 µM
same,TGI,OVCAR-8 ovarian,19 µM
same,TGI,CCRF-CEM leukemia,21.8 µM
same,TGI,SNB-19 CNS,23.8 µM
same,TGI,MOLT-4 leukemia,14.7 µM
same,TGI,HCT-15 colon,11.2 µM
same,TGI,SF-539 CNS,32 µM
same,TGI,RPMI-8226 leukemia,26.4 µM
same,TGI,HOP-92 NSCLC,19.6 µM
same,TGI,RXF-631 renal,48.7 µM
same,TGI,DLD-1 colon,12.4 µM
same,TGI,SK-OV-3 ovarian,31.9 µM
same,TGI,HCC-2998 colon,31.2 µM
same,TGI,M14 melanoma,28.8 µM
same,TGI,HL-60(TB) leukemia,6.47 µM
same,TGI,NCI-H226 lung,36.6 µM
same,TGI,M19-MEL melanoma,27.9 µM
CCC1(c2ccncc2)CCC(=O)NC1=O (stereo unspecified),TGI,SW-620 colon,> 100 µM
same,TGI,SN12C renal,> 100 µM
same,TGI,K-562 leukemia,> 100 µM
same,TGI,CAKI-1 renal,> 100 µM
same,TGI,SK-MEL-2 melanoma,> 100 µM
same,TGI,OVCAR-4 ovarian,> 100 µM
same,TGI,UACC-257 melanoma,> 100 µM
same,TGI,IGROV1 ovarian,> 100 µM
same,TGI,LXFL 529 NSCLC,> 100 µM
same,TGI,UACC-62 melanoma,> 100 µM
same,TGI,OVCAR-3 ovarian,> 100 µM
same,TGI,OVCAR-5 ovarian,> 100 µM
same,TGI,TK-10 renal,> 100 µM
same,TGI,786-0 renal,> 100 µM
same,TGI,ACHN renal,> 100 µM
same,TGI,NCI-H460 lung,> 100 µM
same,TGI,SR leukemia,> 100 µM
same,TGI,HCT-116 colon,> 100 µM
same,TGI,UO-31 renal,> 100 µM
same,TGI,HOP-62 NSCLC,> 100 µM
same,TGI,RXF 393 renal,> 100 µM
same,TGI,EKVX NSCLC,> 100 µM
same,TGI,HT29 colon,> 100 µM
same,TGI,XF 498 CNS,> 100 µM
same,TGI,A549 NSCLC,> 100 µM
same,TGI,SF-268 CNS,> 100 µM
same,TGI,MALME-3M melanoma,> 100 µM
same,TGI,SNB-78 CNS,> 100 µM
same,TGI,SK-MEL-28 melanoma,> 100 µM
same,TGI,U251 CNS,> 100 µM
same,TGI,KM20L2 colon,> 100 µM
same,TGI,A498 renal,> 100 µM
same,TGI,SNB-75 CNS,> 100 µM
same,TGI,NCI-H23 lung,> 100 µM
same,TGI,LOX IMVI melanoma,> 100 µM
same,TGI,KM12 colon,> 100 µM
same,TGI,COLO 205 colon,> 100 µM
same,TGI,SK-MEL-5 melanoma,> 100 µM
same,TGI,DMS 114 small cell lung,> 100 µM
same,TGI,SF-295 CNS,> 100 µM
same,TGI,OVCAR-8 ovarian,> 100 µM
same,TGI,CCRF-CEM leukemia,> 100 µM
same,TGI,SNB-19 CNS,> 100 µM
same,TGI,MOLT-4 leukemia,> 100 µM
same,TGI,HCT-15 colon,> 100 µM
same,TGI,SF-539 CNS,> 100 µM
same,TGI,RPMI-8226 leukemia,> 100 µM
same,TGI,HOP-92 NSCLC,> 100 µM
same,TGI,RXF-631 renal,> 100 µM
same,TGI,DLD-1 colon,> 100 µM
same,TGI,SK-OV-3 ovarian,> 100 µM
same,TGI,HCC-2998 colon,> 100 µM
same,TGI,M14 melanoma,> 100 µM
same,TGI,HL-60(TB) leukemia,> 100 µM
same,TGI,NCI-H226 lung,> 100 µM
same,TGI,M19-MEL melanoma,> 100 µM
